According to patent publication US9321772B2, “Substituted pyrazolo[3,4-D]pyrimidines and uses thereof” (The Regents of the University of California, priority 2011, dated 2016):

Test system: TPC1 cells
Assay: AnnexinV/PI flow cytometry apoptosis assay in TPC1 cells
Assay type: cell-based, human
Procedure: FIG. 25. TPC1 cells were grown in 6 well dishes at 70-80% confluence in growth media supplemented with 10% FBS. TPC1 cells were treated with either AD80, the MEK inhibitor PD325901 or a combination of both inhibitors at indicated concentrations for 72 h. Induction of apoptosis was measured using flow cytometry based counting of AnnexinV/PI positive cells.

## CC(C)n1nc(-c2ccc(NC(=O)Nc3cc(C(F)(F)F)ccc3F)cc2)c2c(N)ncnc21 [AD80]
Combination with MEK inhibitor PD325901, 72 h
  induction of apoptosis (AnnexinV/PI positive cells): robust induction of apoptosis
Single agent, 72 h
  induction of apoptosis (AnnexinV/PI positive cells): does not lead to induction of apoptosis
